For experiment [1], the system named is RANTES. The experiment is classed as cell-based, human.
Experiment [2] has as its system IFN-γ. The experiment is classed as cell-based, human.
The test system of experiment [3] is IAV A/PR/8/34. The arrangement: species or system C57BL/6 mice. Conditions: mouse, in vivo.
The subject of a further experiment is IAV A/PR/8/34 (H1N1). The experiment is classed as cell-based, influenza virus type A.
A further experiment concerns the target T1, PAR2 (Homo sapiens, UniProt P55085).
T1 construct: endogenous in cells; host or cells: A549 (human alveolar type II epithelial cell line, ATCC)
T1 sequence (P55085 26-397): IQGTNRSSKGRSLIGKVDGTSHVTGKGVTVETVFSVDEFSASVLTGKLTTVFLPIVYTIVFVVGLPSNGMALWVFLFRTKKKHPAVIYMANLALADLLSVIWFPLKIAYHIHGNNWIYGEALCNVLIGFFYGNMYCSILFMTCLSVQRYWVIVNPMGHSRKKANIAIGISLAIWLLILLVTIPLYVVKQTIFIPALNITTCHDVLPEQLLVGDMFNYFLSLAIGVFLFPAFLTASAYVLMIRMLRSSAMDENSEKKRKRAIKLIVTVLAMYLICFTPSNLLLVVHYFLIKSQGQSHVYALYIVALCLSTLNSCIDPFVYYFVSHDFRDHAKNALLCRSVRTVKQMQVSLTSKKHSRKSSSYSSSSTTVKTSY
Put plainly: Flow cytometry of PAR2 expression in A549 cells after PAR2 stimulation. The note with it: 250 μM peptide, 24 hours post-stimulation, permeabilized cells. Format: cell-based. The procedure: A549 cells were infected or not at a MOI of 0.001 for 24 hours and flow cytometry experiments were done on permeabilized cells, as previously described (Riteau B. et al. 2001; Riteau B. et al. 2001), using the SAM11 anti-PAR2 antibody (Santa-cruz biotechnology, Inc, USA). PAR2 stimulation of A549 cells was performed using 250 μM of PAR2 specific activating peptide SLIGRL-NH2 and flow cytometry experiment was performed 24 hours post-stimulation.
On the technique in general: Flow cytometry measures light scatter and fluorescence of single cells or particles in a stream.

Experiment [4] deals with IAV A/PR/8/34. Set-up: species or system C57BL/6 mice. The note with it: mouse, in vivo. The source holds these as a separate data set.
Experiment [5] concerns IFN-γ. Set-up: species or system C57BL/6 mice. The note with it: mouse, in vivo.
The subject of the next experiment is neutrophils. The arrangement: species or system C57BL/6 mice. The note with it: mouse, in vivo.
In experiment [6] the test system is RANTES. The arrangement: species or system C57BL/6 mice. The note with it: mouse, in vivo.
Experiment [7] concerns IAV A/PR/8/34. Set-up: species or system C57BL/6 mice. The note with it: mouse, in vivo. This is another data set of the same source.
Experiment [8] concerns IAV A/PR/8/34. Put plainly: Survival and weight loss of IAV-infected IFN-γ-deficient mice treated with peptide. Conditions: 50 000 pfu/mice.
Excerpt: Six-weeks-old IFN-γ-deficient mice (background C57BL/6, n=36) obtained from the INRA “Experimental Infectiology Platform” of Tours (France) were anaesthetized once and infected intranasally with 50 000 pfu of A/PR/8/34 in the presence or absence of SLIGRL-NH2. C57BL/6J/WT mice (n=20) were used as control. Infected mice were then monitored daily for survival.

Ends that are not written are not given here.

SLIGRL-NH2: in the experiment on RANTES [1], the RANTES level result is “at the limit of detection” and the RANTES production entry is “significantly inhibited”. In addition, in the experiment with IFN-γ [2], the IFN-γ level result is recorded as “at the limit of detection”, the IFN-γ release result is given as “induced IFN-γ release” and the “time of peak IFN-γ release” value is listed as 8 hours post-infection. In addition, in the experiment with IAV A/PR/8/34 [3], the “decreased infectious virus load in lungs at lower doses of IAV infection” value is given as “also observed” and the “infectious virus load in lungs” value is reported as “significantly decreased”. In addition, in the experiment on IAV A/PR/8/34 (H1N1), the “inhibition of IAV replication in the presence of anti-IFNγ neutralizing antibody” value is “could be reversed” and the virus production result was “produced less virus”. Moreover, in the experiment with PAR2, the “effect on PAR2 synthesis” value is listed as “had no effect”. In the experiment with IAV A/PR/8/34 [4], the “histopathologic examination of the lungs” value is recorded as “lack evidence of pathology”. Besides, in the experiment on IFN-γ [5], the “IFN-γ release in BAL after IAV infection” value is reported as “significant increase” and the “release of IFN-γ in BAL” value is listed as “no effect”. For the same substance, in the experiment with neutrophils, the “influx of neutrophils in BAL” value is “significantly decreased” and the “number of neutrophils in BAL at 48-hours compared to level at 24-hours” value was “significantly increased”. Also, in the experiment with RANTES [6], the “IAV-induced increase of RANTES in BAL” value is listed as “significantly inhibited” and the “release of RANTES in BAL” value is listed as “three-fold increase”. Besides, in the experiment with IAV A/PR/8/34 [7], the “protection stable, inhibiting mortality until” value is at least 12 days and the survival rate result is “protected mice from death, in a dose-dependent manner”. In the experiment on IAV A/PR/8/34 [8], the “kinetic of weight loss after IAV infection” value was “did not modify” and the protection from death entry is “did not protect mice from death”.
With LRGILS-NH2 [reference compound], the “overall appearance of lungs (photographic pictures)” value in the experiment with IAV A/PR/8/34 [4] is “severely injured”. Also, the “IFN-γ release in BAL after IAV infection” value with IFN-γ [5] is reported as “No significant increase”. In addition, the survival rate result in the experiment with IAV A/PR/8/34 [7] was “had no effect”.
